In patent publication US3940441A (priority 1974, dated 1976):
≈ marks a conversion by molar mass, not a printed value. Where two headings read alike, the source gives them in different places.

Assays:
Eberthella typhi = experiment: microbe, parasite or virus in culture; type: cell-based; details: for MBC: read-out: Minimum Effective Concentration, Bactericidal; for MIC: read-out: Minimum Effective Concentration, Bacteriostatic
Pseudomonas aeruginosa = experiment: microbe, parasite or virus in culture; type: cell-based; details: for MBC / MIC: Pseudomonas aeruginosa; for MBC: read-out: Minimum Effective Concentration, Bactericidal
Streptococcus sp. = experiment: microbe, parasite or virus in culture; type: cell-based; details: for MBC / MIC: Streptococcus; for MBC: read-out: Minimum Effective Concentration, Bactericidal; for MIC: read-out: Minimum Effective Concentration, Bacteriostatic
Staphylococcus aureus = experiment: microbe, parasite or virus in culture; type: cell-based; details: for MBC / MIC: Staphylococcus aureus; for MBC: read-out: Minimum Effective Concentration, Bactericidal
Clostridium welchii = experiment: microbe, parasite or virus in culture; type: cell-based
Endamoeba criceti = experiment: chemotherapeutic evaluation in vivo in hamsters infected with Endamoeba criceti (amebacidal activity); design: species or system hamster; details: oral
Escherichia coli = experiment: microbe, parasite or virus in culture; type: cell-based; details: read-out: Minimum Inhibitory Concentration
Proteus vulgaris = experiment: microbe, parasite or virus in culture; type: cell-based; details: read-out: Minimum Inhibitory Concentration
[1] = read-out: Minimum Effective Concentration, Bacteriostatic
[2] = Clostridium, read-out: Minimum Effective Concentration, Bactericidal
[3] = Clostridium, read-out: Minimum Effective Concentration, Bacteriostatic
[4] = read-out: Minimum Inhibitory Concentration

Row | Compound | MBC (Eberthella typhi) | MIC (Eberthella typhi) | MBC (Pseudomonas aeruginosa) | MIC (Pseudomonas aeruginosa; [1]) | MBC (Staphylococcus aureus) | MIC (Staphylococcus aureus; [1]) | MBC (Clostridium welchii; [2]) | MIC (Clostridium welchii; [3]) | further results
1 | 2,2'-Dimethylbis{2-[4-(4'-nitrophenoxy)benzylamino]-ethyl}amine and 1,2'-Dimethylbis{2-[4-(4'-nitrophenoxy)benzylamino]ethyl}amine (Mixture of Isomers) [Example 9A] |  |  |  |  |  |  |  |  | Minimum Effective Concentration, Bactericidal (Eberthella typhi): 0.25 mg./cc.; Minimum Effective Concentration, Bacteriostatic (Eberthella typhi): 0.1 mg./cc.; Minimum Effective Concentration, Bactericidal (Pseudomonas aeruginosa): > 1.0 mg./cc.; Minimum Effective Concentration, Bacteriostatic (Pseudomonas aeruginosa): 0.5 mg./cc.; Minimum Effective Concentration, Bactericidal (Streptococcus sp.): 0.01 mg./cc.; Minimum Effective Concentration, Bacteriostatic (Streptococcus sp.): 0.0075 mg./cc.; Minimum Effective Concentration, Bactericidal (Staphylococcus aureus): 0.025 mg./cc.; Minimum Effective Concentration, Bacteriostatic (Staphylococcus aureus): 0.005 mg./cc.; Minimum Effective Concentration, Bactericidal (Clostridium welchii): 0.005 mg./cc.; Minimum Effective Concentration, Bacteriostatic (Clostridium welchii): 0.001 mg./cc.
2 | O=[N+]([O-])c1ccc(Oc2ccc(C=NCCCCCCN=Cc3ccc(Oc4ccc([N+](=O)[O-])cc4)cc3)cc2)cc1 [Example 1A, N,N'-bis[4-(4'-nitrophenoxy)benzal]-1,6-hexanediamine] |  |  |  |  |  |  |  |  | animals cleared of amebic infection (Endamoeba criceti; 25 mg./kg./day): 4 out of 10; animals cleared of amebic infection (Endamoeba criceti; 50 mg./kg./day): 6 out of 10; animals cleared of amebic infection (Endamoeba criceti; 100 mg./kg./day): 3 out of 5
3 | O=[N+]([O-])c1ccc(Oc2ccc(C=NCCCCCCCCN=Cc3ccc(Oc4ccc([N+](=O)[O-])cc4)cc3)cc2)cc1 [Example 2, N,N'-bis[4-(4'-nitrophenoxy)benzal]-1,8-octanediamine] |  |  |  |  |  |  |  |  | animals cleared of amebic infection (Endamoeba criceti; 12.5 mg./kg./day): 1 out of 5; animals cleared of amebic infection (Endamoeba criceti; 25 mg./kg./day): 2 out of 5; animals cleared of amebic infection (Endamoeba criceti; 50 mg./kg./day): 2 out of 5
4 | O=[N+]([O-])c1ccc(Oc2ccc(C=NCCN=Cc3ccc(Oc4ccc([N+](=O)[O-])cc4)cc3)cc2)cc1 [Example 3, N,N'-bis[4-(4'-nitrophenoxy)benzal]-1,2-ethanediamine] |  |  |  |  |  |  |  |  | animals cleared of amebic infection (Endamoeba criceti; 100 mg./kg./day): 2 out of 5
5 | O=[N+]([O-])c1ccc(Oc2ccc(CNCCCCCCCCNCc3ccc(Oc4ccc([N+](=O)[O-])cc4)cc3)cc2)cc1 [Example 6A, N,N'-bis[4-(4'-nitrophenoxy)benzyl]-1,8-octanediamine] | 25 µg/mL (≈ 41.8 µM) | 7.5 µg/mL (≈ 12.5 µM) | 1000 µg/mL (≈ 1670 µM) | 750 µg/mL (≈ 1250 µM) | 5 µg/mL (≈ 8.35 µM) | 0.5 µg/mL (≈ 0.835 µM) | 75 µg/mL (≈ 125 µM) | 50 µg/mL (≈ 83.5 µM) | 
6 | O=[N+]([O-])c1ccc(Oc2ccc(CNCCCCCCNCc3ccc(Oc4ccc([N+](=O)[O-])cc4)cc3)cc2)cc1 [Example 7, N,N'-bis[4-(4'-nitrophenoxy)benzyl]-1,6-hexanediamine] | 50 µg/mL (≈ 87.6 µM) | 7.5 µg/mL (≈ 13.1 µM) | 500 µg/mL (≈ 876 µM) | 250 µg/mL (≈ 438 µM) | 7.5 µg/mL (≈ 13.1 µM) | 1 µg/mL (≈ 1.75 µM) | 25 µg/mL (≈ 43.8 µM) | 25 µg/mL (≈ 43.8 µM) | 
7 | O=[N+]([O-])c1ccc(Oc2ccc(CNCCNCc3ccc(Oc4ccc([N+](=O)[O-])cc4)cc3)cc2)cc1 [Example 8, N,N'-bis[4-(4'-nitrophenoxy)benzyl]-1,2-ethanediamine] | > 100 µg/mL | 75 µg/mL (≈ 146 µM) | > 100 µg/mL | 75 µg/mL (≈ 146 µM) | 50 µg/mL (≈ 97.2 µM) | 10 µg/mL (≈ 19.4 µM) | 1 µg/mL (≈ 1.94 µM) | 0.5 µg/mL (≈ 0.972 µM) | 
8 | O=[N+]([O-])c1ccc(Oc2ccc(CNCCCNCCCNCc3ccc(Oc4ccc([N+](=O)[O-])cc4)cc3)cc2)cc1 [Example 9B, Bis{3-[4-(4'-nitrophenoxy)benzylamino]propyl}amine] |  |  |  |  |  |  |  |  | MIC (Escherichia coli): 0.2 µg/mL (≈ 0.341 µM); MIC (Pseudomonas aeruginosa; [4]): 3.1 µg/mL (≈ 5.29 µM); MIC (Proteus vulgaris): 125 µg/mL (≈ 213 µM); MIC (Staphylococcus aureus; [4]): 0.05 µg/mL (≈ 0.0854 µM)
9 | O=[N+]([O-])c1ccc(Oc2ccc(CNC[C@H]3CC[C@H](CNCc4ccc(Oc5ccc([N+](=O)[O-])cc5)cc4)CC3)cc2)cc1 [Example 10A, Trans-1,4-bis[4-(4'-nitrophenoxy)benzylaminomethyl]cyclohexane] | 75 µg/mL (≈ 126 µM) | 50 µg/mL (≈ 83.8 µM) |  |  | 50 µg/mL (≈ 83.8 µM) | 10 µg/mL (≈ 16.8 µM) | 100 µg/mL (≈ 168 µM) | 100 µg/mL (≈ 168 µM) | MBC (Streptococcus sp.): 25 µg/mL (≈ 41.9 µM); MIC (Streptococcus sp.): 25 µg/mL (≈ 41.9 µM)
10 | CN(CCCCCCN(C)Cc1ccc(Oc2ccc([N+](=O)[O-])cc2)cc1)Cc1ccc(Oc2ccc([N+](=O)[O-])cc2)cc1 [Example 11A, N,N'-Dimethyl-N,N'-bis[4-(4'-nitrophenoxy)-benzyl]-1,6-hexanediamine] | 750 µg/mL (≈ 1250 µM) | 500 µg/mL (≈ 835 µM) |  |  | 250 µg/mL (≈ 418 µM) | 5 µg/mL (≈ 8.35 µM) | 500 µg/mL (≈ 835 µM) | 250 µg/mL (≈ 418 µM) | MBC (Streptococcus sp.): 5 µg/mL (≈ 8.35 µM); MIC (Streptococcus sp.): 5 µg/mL (≈ 8.35 µM)
11 | O=C(Nc1ccccc1)N(CCCCCCN(Cc1ccc(Oc2ccc([N+](=O)[O-])cc2)cc1)C(=O)Nc1ccccc1)Cc1ccc(Oc2ccc([N+](=O)[O-])cc2)cc1 [Example 12A, N,N'-bis[4-(4'-nitrophenoxy)benzyl]-N,N'-bis(phenylcarbamyl)-1,6-hexanediamine] | > 100 µg/mL | 75 µg/mL (≈ 92.7 µM) | > 100 µg/mL | 75 µg/mL (≈ 92.7 µM) | 75 µg/mL (≈ 92.7 µM) | 75 µg/mL (≈ 92.7 µM) | 100 µg/mL (≈ 124 µM) | 75 µg/mL (≈ 92.7 µM) | 
12 | O=C(C(Cl)Cl)N(CCN(Cc1ccc(Oc2ccc([N+](=O)[O-])cc2)cc1)C(=O)C(Cl)Cl)Cc1ccc(Oc2ccc([N+](=O)[O-])cc2)cc1 [Example 13A, N,N'-bis(dichloroacetyl)-N,N'-bis[4-(4'-nitrophenoxy)benzyl]-1,2-ethanediamine] | 750 µg/mL (≈ 1020 µM) | 750 µg/mL (≈ 1020 µM) | 750 µg/mL (≈ 1020 µM) | 750 µg/mL (≈ 1020 µM) | > 1000 µg/mL | 750 µg/mL (≈ 1020 µM) | > 1000 µg/mL | 750 µg/mL (≈ 1020 µM) | 
13 | Nc1ccc(Oc2ccc(CNCCCCCCCCNCc3ccc(Oc4ccc(N)cc4)cc3)cc2)cc1 [Example 14A, N,N'-bis[4-(4'-aminophenoxy)benzyl]-1,8-octanediamine] | 75 µg/mL (≈ 139 µM) | 50 µg/mL (≈ 92.8 µM) | 1000 µg/mL (≈ 1860 µM) | 750 µg/mL (≈ 1390 µM) | 25 µg/mL (≈ 46.4 µM) | 7.5 µg/mL (≈ 13.9 µM) |  |  | MBC (Streptococcus sp.): 50 µg/mL (≈ 92.8 µM); MIC (Streptococcus sp.): 25 µg/mL (≈ 46.4 µM); MBC (Clostridium welchii; Clostridium; read-out: Minimum Effective Concentration, Bactericidal): 100 µg/mL (≈ 186 µM); MIC (Clostridium welchii; Clostridium; read-out: Minimum Effective Concentration, Bacteriostatic): 100 µg/mL (≈ 186 µM)
14 | Cc1c(C)c(CCNCc2ccc(Oc3ccc([N+](=O)[O-])cc3)cc2)c(C)c(C)c1CCNCc1ccc(Oc2ccc([N+](=O)[O-])cc2)cc1 [Example 16A, Bis{2-[4-(4'-nitrophenoxy)benzylamino]ethyl}-2,3,5,6-tetramethylbenzene] | 750 µg/mL (≈ 1110 µM) | 100 µg/mL (≈ 148 µM) |  |  | 75 µg/mL (≈ 111 µM) | 7.5 µg/mL (≈ 11.1 µM) | 250 µg/mL (≈ 370 µM) | 100 µg/mL (≈ 148 µM) | MBC (Streptococcus sp.): 25 µg/mL (≈ 37 µM); MIC (Streptococcus sp.): 2.5 µg/mL (≈ 3.7 µM)
